Results from patent US20100267561A1, “HERBICIDAL PYRIDAZINONE DERIVATIVES” (priority 2007, published 2010).

How the values were obtained:
Assay type in all cases: in vivo
[1] = tested on: barnyardgrass (Echinochloa crus-galli); experiment: Test A pre-/postemergence plant response
Procedure, shortened: (§1)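 Seeds in loam soil/sand blend treated preemergence by directed soil spray, with simultaneous postemergence spray on 2–10 cm plants at one- to two-leaf stage; compounds in non-phytotoxic solvent with surfactant. Injury visually rated versus untreated controls after about 10 days in greenhouse, 0 (no effect) to 100 (complete control).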

corn (Zea mays) = experiment: Test A pre-/postemergence plant response
Procedure, shortened: as §1

[2] = tested on: large crabgrass (Digitaria sanguinalis); experiment: Test A pre-/postemergence plant response
Procedure, shortened: as §1

[3] = tested on: morningglory (Ipomoea coccinea); experiment: Test A pre-/postemergence plant response
Procedure, shortened: as §1

[4] = tested on: pigweed (Amaranthus retroflexus); experiment: Test A pre-/postemergence plant response
Procedure, shortened: as §1

[5] = tested on: Italian ryegrass (Lolium multiflorum); experiment: Test B pre-/postemergence plant response
Procedure, shortened: (§2)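 Preemergence and postemergence (plants 2-18 cm, 1- to 4-leaf stage) applications used test chemicals in a non-phytotoxic solvent with surfactant. Plants were held in a greenhouse 13 to 15 days, then rated visually against controls on a 0-100 scale (0 no effect, 100 complete control).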

[6] = tested on: bermudagrass (Cynodon dactylon); experiment: Test B pre-/postemergence plant response
Procedure, shortened: as §2

[7] = tested on: johnsongrass (Sorghum halepense); experiment: Test B pre-/postemergence plant response
Procedure, shortened: as §2

[8] = tested on: canarygrass (Phalaris minor); experiment: Test B postemergence plant response; conditions: Postemergence
Procedure, shortened: (§3)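 Postemergence greenhouse test; plants at 2 to 18 cm (1- to 4-leaf stage) given formulated test chemical, held 13 to 15 days, then visually rated against untreated controls on a 0 (no effect) to 100 (complete control) scale; dash means no result.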

[9] = tested on: chickweed (Stellaria media); experiment: Test B postemergence plant response; conditions: Postemergence
Procedure, shortened: as §3

[10] = tested on: windgrass (Apera spica-venti); experiment: Test B postemergence plant response; conditions: Postemergence
Procedure, shortened: as §3

[11] = tested on: winter barley (Hordeum vulgare); experiment: Test B postemergence plant response; conditions: Postemergence
Procedure, shortened: as §3

[12] = Postemergence, 125 g ai/ha, 0 to 100 scale, 0 no effect, 100 complete control
[13] = Postemergence, 500 g ai/ha, 0 to 100 scale, 0 no effect, 100 complete control
[14] = Preemergence, 125 g ai/ha, 0 to 100 scale (0 no effect, 100 complete control)
[15] = Preemergence, 500 g ai/ha, 0 to 100 scale (0 no effect, 100 complete control)
[16] = Postemergence, 31 g ai/ha, scale 0 to 100, 0 no effect, 100 complete control
[17] = Postemergence, 62 g ai/ha, scale 0 to 100
[18] = Postemergence, 125 g ai/ha, scale 0 to 100
[19] = Postemergence, 250 g ai/ha, scale 0 to 100
[20] = Preemergence, 31 g ai/ha, 0 to 100 scale, 0 no effect, 100 complete control
[21] = Preemergence, 62 g ai/ha, scale 0 to 100
[22] = Preemergence, 125 g ai/ha, scale 0 to 100
[23] = Preemergence, 250 g ai/ha, scale 0 to 100
[24] = 31 g ai/ha, scale 0 to 100, 0 no effect, 100 complete control

CCc1cc(-c2ccc(C(F)(F)F)cc2)nn1-c1c(O)c(C)nn(C)c1=O [Compound 16]
90: Plant response rating, Barnyardgrass [1, 12] | Plant response rating, Corn (corn (Zea mays); [12]) | Plant response rating, Corn (corn (Zea mays); [15]) | Plant response rating, Crabgrass, Large [2, 12] | Plant response rating, Crabgrass, Large [2, 14] | Plant response rating, Windgrass [10, 24] | Plant response rating, Barley [11, 24] | Plant response rating, Barley ([11]; 62 g ai/ha, scale 0 to 100)
0: Plant response rating, Morningglory [3, 12] | Plant response rating, Morningglory [3, 13] | Plant response rating, Morningglory [3, 14] | Plant response rating, Morningglory [3, 15] | Plant response rating, Pigweed [4, 12] | Plant response rating, Pigweed [4, 13] | Plant response rating, Pigweed [4, 14] | Plant response rating, Pigweed [4, 15] | Plant response rating, Bermudagrass [6, 20] | Plant response rating, Bermudagrass [6, 21] | Plant response rating, Chickweed [9, 24] | Plant response rating, Chickweed ([9]; 62 g ai/ha, scale 0 to 100) | Plant response rating, Chickweed ([9]; 125 g ai/ha, scale 0 to 100) | Plant response rating, Chickweed ([9]; 250 g ai/ha, scale 0 to 100)
25: Plant response rating, Johnsongrass [7, 20]
65: Plant response rating, Bermudagrass [6, 16]
98: Plant response rating, Bermudagrass [6, 22] | Plant response rating, Johnsongrass [7, 16] | Plant response rating, Barley ([11]; 250 g ai/ha, scale 0 to 100)
70: Plant response rating, Corn (corn (Zea mays); [14]) | Plant response rating, Johnsongrass [7, 21] | Plant response rating, Canarygrass [8, 24]
95: Plant response rating, Canarygrass ([8]; 62 g ai/ha, scale 0 to 100) | Plant response rating, Barley ([11]; 125 g ai/ha, scale 0 to 100)
100: Plant response rating, Barnyardgrass [1, 13] | Plant response rating, Barnyardgrass [1, 14] | Plant response rating, Barnyardgrass [1, 15] | Plant response rating, Corn (corn (Zea mays); [13]) | Plant response rating, Crabgrass, Large [2, 13] | Plant response rating, Crabgrass, Large [2, 15] | Plant response rating, Ryegrass, Italian [5, 16] | Plant response rating, Ryegrass, Italian [5, 17] | Plant response rating, Ryegrass, Italian [5, 18] | Plant response rating, Ryegrass, Italian [5, 19] | Plant response rating, Ryegrass, Italian [5, 20] | Plant response rating, Ryegrass, Italian [5, 21] | Plant response rating, Ryegrass, Italian [5, 22] | Plant response rating, Ryegrass, Italian [5, 23] | Bermudagrass plant response rating ([6]; 250 g ai/ha, preemergence, 0-100 scale) | Plant response rating, Bermudagrass [6, 17] | Plant response rating, Bermudagrass [6, 18] | Plant response rating, Bermudagrass [6, 19] | Plant response rating, Johnsongrass [7, 17] | Plant response rating, Johnsongrass [7, 18] | Plant response rating, Johnsongrass [7, 19] | Plant response rating, Johnsongrass [7, 22] | Plant response rating, Johnsongrass [7, 23] | Plant response rating, Windgrass ([10]; 62 g ai/ha, scale 0 to 100) | Plant response rating, Windgrass ([10]; 125 g ai/ha, scale 0 to 100) | Plant response rating, Windgrass ([10]; 250 g ai/ha, scale 0 to 100)
